Values of other authors in patent US20050163837A1, “Rosiglitazone formulations” (priority 2003, published 2005).

How the values were obtained:
[1] = test system: mouse models of diabetes
[2] = test system: animal models of type 2 diabetes

Question: Which results are given for `CN(CCOc1ccc(CC2SC(=O)NC2=O)cc1)c1ccccn1` (stereo not drawn) [Rosiglitazone, 5-[4-[2-(N-methyl-N-(2-pyridyl)amino)ethoxy]benzyl]thiazolidine-2,4-dione]?
Answer: development of overt diabetes ([1]; mouse models): prevent the development of overt diabetes; blood glucose levels and hyperinsulinemia ([1]; several mouse models of diabetes): reduce blood glucose levels and hyperinsulinemia; induction of hypoglycemia or impaired glucose tolerance [2]: did not induce hypoglycemia or impaired glucose tolerance
